In patent US20260158011A1 (Achieve Life Sciences, Inc., priority 2023, published 2026):
Read-outs that look alike come from different tables or passages of the source.

Tested on: adults who smoked 10 cigarettes per day
Description: Safety was assessed by measurement of vital signs and participant self-report of adverse events and concomitant medications on day 2 and at weekly visits during treatment from week 1 to 12 and through an additional 12-week follow-up. Hematology and chemistry laboratory tests were done at weeks 1, 6, and 12. Electrocardiograms were done at weeks 6 and 12. Clinically significant adverse events or abnormalities were followed until resolution or end of study.
The study had two primary endpoints. […] Study success was defined as either primary endpoint meeting statistical criterion. The secondary outcome measures were verified continuous cigarette abstinence to week 24 (weeks 3 to 24 for Arms B vs. A; weeks 9 to 24 for Arms C vs. A). A third secondary outcome measure compared the risk of relapse to smoking between weeks 6 and 24 among participants assigned to cytisinicline who achieved abstinence by week 6; these individuals were either switched to placebo at week 6 (Arm B) or continued cytisinicline to week 12 (Arm C). Other pre-specified endpoints included comparing the difference between arms in verified 7-day point-prevalence abstinence at each visit from week 2 through week 24 and assessing for evidence of effect modification for subsets defined by baseline attributes. To assess cigarette craving between groups, the Brief Questionnaire of Smoking Urges (QSU-brief) was administered at clinic visits on Day 0 and at Weeks 1 to 6 (4, 5). Safety outcomes included the incidence of treatment-emergent serious and non-serious adverse events during treatment with cytisinicline or placebo and clinically-significant changes in vital signs, laboratory tests or electrocardiograms.
Analyses for the binary primary and secondary outcomes were based on exact analyses 2×2 tables stratified by clinical site. Missed assessments of primary and secondary endpoints were imputed as non-success, thereby enabling analyses following the intent-to-treat principle. The Hochberg procedure was used to control for multiplicity (6). A target sample of 750 participants (n=250 per arm) was computed and verified using simulations to provide 96% power for specifications of an overall one-sided 0.025 type I error probability and success probabilities of 7% for placebo and 19% for cytisinicline. Sensitivity analyses included assessments of effect modification related to subsets defined by baseline attributes using logistic and cumulative logit models. Longitudinal analyses used Mixed Model for Repeated Measures methodology (7). Safety analyses included all randomized participants who received at least one dose of study drug. Analyses were conducted by BB.

[1] = Arm B Cytisinicline 6 weeks + placebo 6 weeks, N = 269
[2] = Arm B Cytisinicline 6 weeks + placebo 6 weeks, of 459 events
[3] = Arm C Cytisinicline 12 weeks, N = 270
[4] = Arm C Cytisinicline 12 weeks, of 494 events

O=c1cccc2n1C[C@@H]1CNC[C@H]2C1 [cytisine, (−)-Cytisine]
Treatment-emergent adverse events reported (6-week cytisinicline arm): 172 (63.9%) participants (%) | Treatment-emergent adverse events reported (12-week cytisinicline arm): 184 (68.2%) participants (%) | OR for serious adverse events, cytisinicline versus placebo (539 cytisinicline vs 270 placebo participants): 3.08 | Study drug discontinuation due to adverse events (Arm B): 2.6% | Number of treatment emergent adverse events [1]: 459 | Participants with Abnormal dreams (treatment-emergent adverse event), % [1]: 8.2% | Participants with Anxiety (treatment-emergent adverse event), % [1]: 2.6% | Participants with Constipation (treatment-emergent adverse event), % [1]: 5.9% | Participants with Diarrhea (treatment-emergent adverse event), % [1]: 3.7% | Participants with Headache (treatment-emergent adverse event), % [1]: 6.7% | Participants with Insomnia (treatment-emergent adverse event), % [1]: 8.6% | Participants with Nausea (treatment-emergent adverse event), % [1]: 5.9% | Participants with any serious adverse event, % [1]: 3.7% | Participants with any treatment emergent adverse event, % [1]: 63.9% | Participants with any treatment-related serious adverse event, % [1]: 0% | Treatment emergent adverse events, Mild, % [2]: 63.2% | Treatment emergent adverse events, Moderate, % [2]: 32.2% | Treatment emergent adverse events, Severe, % [2]: 4.6% | Study drug discontinuation due to adverse events (Arm C): 3.7% | Number of treatment emergent adverse events [3]: 494 | Participants with Abnormal dreams (treatment-emergent adverse event), % [3]: 7.8% | Participants with Anxiety (treatment-emergent adverse event), % [3]: 5.6% | Participants with Constipation (treatment-emergent adverse event), % [3]: 4.8% | Participants with Diarrhea (treatment-emergent adverse event), % [3]: 4.4% | Participants with Headache (treatment-emergent adverse event), % [3]: 7.8% | Participants with Insomnia (treatment-emergent adverse event), % [3]: 9.6% | Participants with Nausea (treatment-emergent adverse event), % [3]: 5.6% | Participants with any serious adverse event, % [3]: 3.0% | Participants with any treatment emergent adverse event, % [3]: 68.2% | Participants with any treatment-related serious adverse event, % [3]: 0% | Treatment emergent adverse events, Mild, % [4]: 61.3% | Treatment emergent adverse events, Moderate, % [4]: 36.0% | Treatment emergent adverse events, Severe, % [4]: 2.6% | Treatment-related SAEs (all arms): No SAE was judged to be treatment-related | Serious adverse events (SAEs) (of 539 participants on cytisinicline): 18 (3.3%) participants (%) | Study drug discontinuation due to adverse events (of 539 participants receiving cytisinicline (Arms B and C)): 17 (3.2%) participants (%)
